# Results published in patent US10770169B2, “Method of providing a treatment to a subject based on a dynamic pathway map” (THE REGENTS OF THE UNIVERSITY OF CALIFORNIA, priority 2010, dated 2020).
# Entries after “also recorded” stand apart in the source; their conditions may differ.
# Columns and labels:
# [1] = test system: breast cancer cell lines; test: Association of growth rate and response (2-way ANCOVA); format: cell-based, human
# Text: To assess the effects of cell line class and growth rate on drug sensitivity, we performed a set of 2-way Analysis of Covariance (ANCOVA) tests, one for each of the three cell line classification schemes described above. […] We performed these analyses in R with the functions lm and ANOVA, which is available as part of the car package.
# [2] = test system: luminal, basal, claudin-low and ERBB2AMP breast cancer cell lines; test: Associations of clinically relevant subtypes and response (non-parametric ANOVA or t-test on GI50 ranks); format: cell-based, human
# How it was run: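 GI50 values were compared between cell-line subtype groups by non-parametric ANOVA or t-test on ranks. P-values from three test sets were combined and FDR-corrected. Significant three-group effects were followed by post-hoc comparison of each group against all others, and FDR p<0.20 counted as significant.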
# [3] = test system: panel of 55 breast cancer cell lines; test: Cell growth inhibition assay (Cell Titer Glo, 72 h, 9 doses; GI50, TGI, LC50); format: cell-based, human; settings: value is the negative log10 of mol/L
# [4] = test system: TCR-activated CD4(+) T cells; settings: cited from earlier work
smiles,measurement,setting,value
"O=c1[nH]cc(F)c(=O)[nH]1 [5-FU, 5-florouracil]",significance of subtype and doubling time in ANCOVA model,[1]; listed as 5-florouracil,not significant in the subtype test alone but showed strong significance in the ANCOVA model for both class and doubling time
same,significance of subtype and doubling time in ANCOVA model,[1]; listed as 5′FU,strong effects of both subtype and growth rate on response
same,response as a function of doubling time,[1]; luminal and basal cell lines,decreased as doubling time increased in both luminal and basal cell lines
Cc1cc(Nc2cc(N3CCN(C)CC3)nc(Sc3ccc(NC(=O)C4CC4)cc3)n2)n[nH]1 [VX-680],association of response with ERBB2 amplification,[2],negatively associated with ERBB2 amplification
same,subtype-specific response (sensitivity by transcriptional subtype),[2]; GI50 across subtypes,ERBB2^AMP cell lines were resistant; also recorded: ERBB2AMP cell lines are resistant
same,Subtype specificity,"[2]; Table 6, most sensitive subtype, FDR p<0.20",not ERBB2AMP
same,GI50,"[3]; AU565 cell line, censored GI50 values",5.66
same,GI50,"[3]; BT20 cell line, censored GI50 values",4.72
same,GI50,"[3]; BT474 cell line, censored GI50 values",4.54
same,GI50,"[3]; BT483 cell line, censored GI50 values",5.44
same,GI50,"[3]; HCC38 cell line, censored GI50 values",6.94
same,GI50,"[3]; HCC70 cell line, censored GI50 values",5.35
same,GI50,"[3]; HCC1143 cell line, censored GI50 values",5.98
same,GI50,"[3]; HCC1187 cell line, censored GI50 values",6.93
same,GI50,"[3]; HCC1419 cell line, censored GI50 values",4.81
same,GI50,"[3]; HCC1428 cell line, censored GI50 values",5.10
same,GI50,"[3]; HCC1500 cell line, censored GI50 values",4.56
same,GI50,"[3]; HCC1937 cell line, censored GI50 values",5.10
same,GI50,"[3]; HCC2185 cell line, censored GI50 values",6.46
same,GI50,"[3]; HCC3153 cell line, censored GI50 values",4.76
same,GI50,"[3]; MCF7 cell line, censored GI50 values",5.08
same,GI50,"[3]; MDAMB134VI cell line, censored GI50 values",6.11
same,GI50,"[3]; MDAMB175VII cell line, censored GI50 values",4.61
same,GI50,"[3]; MDAMB361 cell line, censored GI50 values",5.63
same,GI50,"[3]; MDAMB415 cell line, censored GI50 values",4.86
same,GI50,"[3]; MDAMB436 cell line, censored GI50 values",6.19
same,GI50,"[3]; MDAMB453 cell line, censored GI50 values",5.03
same,GI50,"[3]; MDAMB468 cell line, censored GI50 values",6.95
same,GI50,"[3]; SUM52PE cell line, censored GI50 values",6.41
same,GI50,"[3]; SUM149PT cell line, censored GI50 values",5.07
same,GI50,"[3]; SUM159PT cell line, censored GI50 values",6.37
same,GI50,"[3]; SUM185PE cell line, censored GI50 values",5.62
same,GI50,"[3]; SUM1315MO2 cell line, censored GI50 values",5.65
same,GI50,"[3]; T47D cell line, censored GI50 values",5.03
same,GI50,"[3]; ZR75B cell line, censored GI50 values",6.79
same,GI50,"[3]; ZR751 cell line, censored GI50 values",5.27
same,GI50,[3]; cell line AU565,5.66
same,GI50,[3]; cell line BT20,4.72
same,GI50,[3]; cell line BT474,4.54
same,GI50,[3]; cell line BT483,5.44
same,GI50,[3]; cell line CAMA1,4.58
same,GI50,[3]; cell line HCC38,6.94
same,GI50,[3]; cell line HCC70,5.35
same,GI50,[3]; cell line HCC1143,5.98
same,GI50,[3]; cell line HCC1187,6.93
same,GI50,[3]; cell line HCC1419,4.81
same,GI50,[3]; cell line HCC1428,5.10
same,GI50,[3]; cell line HCC1500,4.56
same,GI50,[3]; cell line HCC1937,5.10
same,GI50,[3]; cell line HCC1954,4.48
same,GI50,[3]; cell line HCC2185,6.46
same,GI50,[3]; cell line HCC3153,4.76
same,GI50,[3]; cell line MCF7,5.08
same,GI50,[3]; cell line MDAMB134V,6.11
same,GI50,[3]; cell line MDAMB175V,4.61
same,GI50,[3]; cell line MDAMB361,5.63
same,GI50,[3]; cell line MDAMB415,4.86
same,GI50,[3]; cell line MDAMB436,6.19
same,GI50,[3]; cell line MDAMB453,5.03
same,GI50,[3]; cell line MDAMB468,6.95
same,GI50,[3]; cell line SKBR3,4.48
same,GI50,[3]; cell line SUM52PE,6.41
same,GI50,[3]; cell line SUM149PT,5.07
same,GI50,[3]; cell line SUM159PT,6.37
same,GI50,[3]; cell line SUM185PE,5.62
same,GI50,[3]; cell line SUM1315MO,5.65
same,GI50,[3]; cell line T47D,5.03
same,GI50,[3]; cell line UACC812,4.50
same,GI50,[3]; cell line ZR75B,6.79
same,GI50,[3]; cell line ZR751,5.27
Cc1ccc(NC(=O)c2ccc(CN3CCN(C)CC3)cc2)cc1Nc1nccc(-c2cccnc2)n1 [imatinib],interferon-gamma production,[4],inhibit interferon-gamma production
